Data on 11 molecules can be found in US20240409585A1, “MACROCYCLIC IMMUNOMODULATORS” (priority 2021, published 2024).

For test [1], the target named is T1, PE-labeled human PD-L1-Ig binding to Jurkat cell line over-expressing human PD-1 (Jurkat-PD-1) (Homo sapiens, UniProt Q15116).
T1 construct: expressed in transfected cells; host or cells: Jurkat
Nature of the test: Jurkat-PD-1 Cell Binding High-Content Screening Assay (CBA): Method 2 (presence and absence of tween-20). The note with it: Jurkat-PD-1 cells, PE-labeled PD-L1-Ig 20 nM; presence or absence of tween-20 not given; head μM; read-out: CBA Method 2 μM. The method in brief:
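Compounds incubated with Jurkat cells overexpressing human PD-1 for 2 h at 37° C, tested with and without tween-20 to flag aggregation. PE-labeled human PD-L1-Ig (20 nM final) added in DMEM/10% FCS; binding read by high-content imaging.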

Test [2] deals with T1, PE-labeled human PD-L1-Ig binding to Jurkat cell line over-expressing human PD-1 (Jurkat-PD-1). Kind of test: Jurkat-PD-1 Cell Binding High-Content Screening Assay (CBA): Method 1. The conditions noted are these: Jurkat-PD-1 cells, PE-labeled PD-L1-Ig; μM; read-out: CBA Method 1 μM.

Numbered stars: 1 amine (or outer) side, 2 acyl side, 3 side chain; on linkers, the order of the positions; unused ones are H or OH. Bridge positions count the residues as written; N and C are the ends. Square brackets hold non-standard residues; d marks the D form. Peptide text beside a SMILES is read from it. * marks the point of attachment. ξ: configuration not given here. Bip(4'-COOH) = N[C@@H](Cc1ccc(-c2ccc(C(=O)O)cc2)cc1)C(=O)O; Bip(4'-NHAc) = CC(=O)Nc1ccc(-c2ccc(C[C@H](N)C(=O)O)cc2)cc1; Phe(3-CF3) = N[C@@H](Cc1cccc(C(F)(F)F)c1)C(=O)O; X3 = CC(=O)NCc1cccc(C[C@H](N[*:1])C(=O)[*:2])c1; Ala(morpholin-4-yl) = N[C@@H](CN1CCOCC1)C(=O)O; Phe(3-COOH) = N[C@@H](Cc1cccc(C(=O)O)c1)C(=O)O; Phe(4-CONH2) = NC(=O)c1ccc(C[C@H](N)C(=O)O)cc1; Phe(4-COOH) = N[C@@H](Cc1ccc(C(=O)O)cc1)C(=O)O; Bpa = N[C@@H](Cc1ccc(C(=O)c2ccccc2)cc1)C(=O)O; Bip = N[C@@H](Cc1ccc(-c2ccccc2)cc1)C(=O)O; Phe(3-F) = N[C@@H](Cc1cccc(F)c1)C(=O)O; Phe(3-Me) = Cc1cccc(C[C@H](N)C(=O)O)c1; Abu(3S-NH2) = C[C@H](N)[C@H](N)C(=O)O; Val(3-OH) = CC(C)(O)[C@H](N)C(=O)O; Cha = N[C@@H](CC1CCCCC1)C(=O)O; Carboxymethyl = O=C(O)C*; NMeA = CN[C@@H](C)C(=O)O; Nle = CCCC[C@H](N)C(=O)O; Orn = NCCC[C@H](N)C(=O)O; Dab = NCC[C@H](N)C(=O)O; ξC = NC(CS)C(=O)O

T1 sequence (Q15116 25-288): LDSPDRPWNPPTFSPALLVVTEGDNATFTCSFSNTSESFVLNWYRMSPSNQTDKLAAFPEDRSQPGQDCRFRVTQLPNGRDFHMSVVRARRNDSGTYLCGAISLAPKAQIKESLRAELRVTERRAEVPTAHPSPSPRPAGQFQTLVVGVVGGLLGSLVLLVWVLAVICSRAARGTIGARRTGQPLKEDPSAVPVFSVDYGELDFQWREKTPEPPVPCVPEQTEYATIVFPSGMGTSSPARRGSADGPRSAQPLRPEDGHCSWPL

As to `CC(=O)Nc1ccc(-c2ccc(C[C@@H]3NC(=O)[C@H](Cc4cccc(C(F)(F)F)c4)NC(=O)[C@H](CC(=O)O)NC(=O)[C@H](Cc4ccc(C(=O)O)cc4)NC(=O)[C@H]([C@H](C)N)NC(=O)CSC[C@@H](C(=O)N[C@@H](CCN)C(N)=O)NC(=O)[C@H](CCCN)NC(=O)[C@H](C(C)C)NC(=O)[C@H](CC4CCCCC4)NC(=O)[C@H](CCN)NC(=O)[C@@H](CC(C)C)NC(=O)[C@H](C)N(C)C(=O)[C@H](CCC(N)=O)NC(=O)[C@H](Cc4ccc(-c5ccccc5)cc4)NC3=O)cc2)cc1` [Example 5050] ({CH2CO}-[Abu(3S-NH2)][Phe(4-COOH)]D[Phe(3-CF3)][Bip(4'-NHAc)][Bip]Q[NMeA][dL][Dab][Cha]V[Orn]C[Dab]-NH2; thioether N-14), the IC50 came to 0.0059 µM in test [1] and 0.0065 µM in test [2].

On to `CC(=O)Nc1ccc(-c2ccc(C[C@@H]3NC(=O)[C@H](Cc4cccc(C)c4)NC(=O)[C@H](CC(=O)O)NC(=O)[C@H](Cc4ccc(C(=O)O)cc4)NC(=O)[C@H](CN4CCOCC4)NC(=O)CSC[C@@H](C(=O)N[C@@H](CCN)C(N)=O)NC(=O)[C@H](CCCN)NC(=O)[C@H](C(C)C)NC(=O)[C@H](CC4CCCCC4)NC(=O)[C@H](CCN)NC(=O)[C@@H](CC(C)C)NC(=O)[C@H](C)N(C)C(=O)[C@H](CCC(N)=O)NC(=O)[C@H](Cc4ccc(-c5ccccc5)cc4)NC3=O)cc2)cc1` [Example 5048] ({CH2CO}-[Ala(morpholin-4-yl)][Phe(4-COOH)]D[Phe(3-Me)][Bip(4'-NHAc)][Bip]Q[NMeA][dL][Dab][Cha]V[Orn]C[Dab]-NH2; thioether N-14), for which the results for the IC50 in test [1] and in test [2] were 0.0044 µM and 0.0048 µM, respectively.

With `CC(C)C[C@H]1NC(=O)[C@H](C)N(C)C(=O)[C@H](CCC(N)=O)NC(=O)[C@H](Cc2ccc(-c3ccccc3)cc2)NC(=O)[C@H](Cc2ccc(C(=O)O)cc2)NC(=O)[C@H](Cc2cccc(C(F)(F)F)c2)NC(=O)[C@H](CC(=O)O)NC(=O)[C@H](Cc2ccc(OCC(=O)O)cc2)NC(=O)[C@H](CN2CCOCC2)NC(=O)CSC[C@@H](C(=O)N[C@@H](CCN)C(N)=O)NC(=O)[C@H](CCCN)NC(=O)[C@H](C(C)C)NC(=O)[C@H](CC2CCCCC2)NC(=O)[C@H](CCN)NC1=O` [Example 5014] ({CH2CO}-[Ala(morpholin-4-yl)]Y(Carboxymethyl)D[Phe(3-CF3)][Phe(4-COOH)][Bip]Q[NMeA][dL][Dab][Cha]V[Orn]C[Dab]-NH2; thioether N-14), the figures for the IC50 in test [1] and in test [2] were 0.04 µM and 0.17 µM, respectively.

Regarding `CC(=O)Nc1ccc(-c2ccc(C[C@@H]3NC(=O)[C@H](Cc4cccc(C(F)(F)F)c4)NC(=O)[C@H](CC(=O)O)NC(=O)[C@H](Cc4ccc(C(=O)O)cc4)NC(=O)[C@H](CC(C)C)NC(=O)CSC[C@@H](C(=O)N[C@@H](CCN)C(N)=O)NC(=O)[C@H](CCCN)NC(=O)[C@H](C(C)C)NC(=O)[C@H](CC4CCCCC4)NC(=O)[C@H](CCN)NC(=O)[C@@H](CC(C)C)NC(=O)[C@H](C)N(C)C(=O)[C@H](CCC(N)=O)NC(=O)[C@H](Cc4ccc(-c5ccccc5)cc4)NC3=O)cc2)cc1` [Example 5053] ({CH2CO}-L[Phe(4-COOH)]D[Phe(3-CF3)][Bip(4'-NHAc)][Bip]Q[NMeA][dL][Dab][Cha]V[Orn]C[Dab]-NH2; thioether N-14), the IC50 in test [1] turned out to be 0.0074 µM; in test [2], 0.009 µM.

Take `CC(C)C[C@@H]1NC(=O)[C@H](Cc2c[nH]c3ccccc23)NC(=O)[C@H](CC(N)=O)NC(=O)[C@H](Cc2cccc(C(=O)O)c2)NC(=O)[C@H](Cc2ccccc2)NC(=O)CSC[C@@H](C(=O)NCC(N)=O)NC(=O)[C@H](CO)NC(=O)[C@H](C(C)C)NC(=O)[C@H](CC(C)C)NC(=O)[C@H](CC(N)=O)NC(=O)[C@@H](CC(C)C)NC(=O)[C@H](C)N(C)C(=O)[C@H](C(C)C)NC(=O)[C@H](Cc2ccc(-c3ccccc3)cc2)NC1=O` [Example 5026] ({CH2CO}-F[Phe(3-COOH)]NWL[Bip]V[NMeA][dL]NLVSCG-NH2; thioether N-14): the IC50 in test [1] and in test [2] was 0.12 µM in each case.

Turning to `CC(=O)NCc1cccc(C[C@@H]2NC(=O)CSC[C@@H](C(=O)N[C@@H](CCN)C(N)=O)NC(=O)[C@H](CCCN)NC(=O)[C@H](C(C)C)NC(=O)[C@H](CC3CCCCC3)NC(=O)[C@H](CCN)NC(=O)[C@@H](CC(C)C)NC(=O)[C@H](C)N(C)C(=O)[C@H](CCC(N)=O)NC(=O)[C@H](Cc3ccc(-c4ccccc4)cc3)NC(=O)[C@H](Cc3ccc(C(=O)O)cc3)NC(=O)[C@H](Cc3cccc(C)c3)NC(=O)[C@H](CC(=O)O)NC(=O)[C@H](Cc3ccc(OCC(=O)O)cc3)NC2=O)c1` [Example 5033] ({CH2CO}-[X3]Y(Carboxymethyl)D[Phe(3-Me)][Phe(4-COOH)][Bip]Q[NMeA][dL][Dab][Cha]V[Orn]C[Dab]-NH2; thioether N-14), the IC50 amounted to 0.0033 µM in test [1] and 0.0032 µM in test [2].

Turning to `Cc1cccc(C[C@@H]2NC(=O)[C@H](CC(=O)O)NC(=O)[C@H](Cc3ccc(OCC(=O)O)cc3)NC(=O)[C@H](CN3CCOCC3)NC(=O)CSCC(C(=O)N[C@@H](CCN)C(N)=O)NC(=O)[C@H](CCCN)NC(=O)[C@H](C(C)C)NC(=O)[C@H](CC3CCCCC3)NC(=O)[C@H](CCN)NC(=O)[C@@H](CC(C)C)NC(=O)[C@H](C)N(C)C(=O)[C@H](CCC(N)=O)NC(=O)[C@H](Cc3ccc(-c4ccccc4)cc3)NC(=O)[C@H](Cc3ccc(C(=O)c4ccccc4)cc3)NC2=O)c1` (stereo partly drawn) [Example 5031] ({CH2CO}-[Ala(morpholin-4-yl)]Y(Carboxymethyl)D[Phe(3-Me)][Bpa][Bip]Q[NMeA][dL][Dab][Cha]V[Orn][ξC][Dab]-NH2; thioether N-14), the IC50 in test [1] amounted to 0.0068 µM; in test [2], 0.0087 µM.

For `CCCC[C@@H]1NC(=O)CSC[C@@H](C(=O)N[C@@H](CCN)C(N)=O)NC(=O)[C@H](CO)NC(=O)[C@H](C(C)(C)O)NC(=O)[C@H](CC2CCCCC2)NC(=O)[C@H](CCN)NC(=O)[C@@H](CC(C)C)NC(=O)[C@H](C)N(C)C(=O)[C@H](Cc2ccc(C(N)=O)cc2)NC(=O)[C@H](Cc2ccc(-c3ccccc3)cc2)NC(=O)[C@H](Cc2ccc(OCC(=O)O)cc2)NC(=O)[C@H](Cc2cccc(C)c2)NC(=O)[C@H](CC(=O)O)NC(=O)[C@H](Cc2ccc(OCC(=O)O)cc2)NC1=O` [Example 5065] ({CH2CO}-[Nle]Y(Carboxymethyl)D[Phe(3-Me)]Y(Carboxymethyl)[Bip][Phe(4-CONH2)][NMeA][dL][Dab][Cha][Val(3-OH)]SC[Dab]-NH2; thioether N-14), the IC50 was 0.006 µM in test [1] and 0.0077 µM in test [2].

On to `CC(C)C[C@H]1NC(=O)[C@H](C)N(C)C(=O)[C@H](CCCN)NC(=O)[C@H](Cc2ccc(-c3ccccc3)cc2)NC(=O)[C@H](Cc2ccc(-c3ccc(C(=O)O)cc3)cc2)NC(=O)[C@H](Cc2cccc(C(F)(F)F)c2)NC(=O)[C@H](CC(=O)O)NC(=O)[C@H](Cc2ccc(-c3ccc(C(=O)O)cc3)cc2)NC(=O)[C@H](Cc2ccc(OCC(=O)O)cc2)NC(=O)CSC[C@@H](C(=O)N[C@@H](CCN)C(N)=O)NC(=O)[C@H](CCCN)NC(=O)[C@H](C(C)C)NC(=O)[C@H](CC2CCCCC2)NC(=O)[C@H](CCN)NC1=O` [Example 5087] ({CH2CO}-Y(Carboxymethyl)[Bip(4'-COOH)]D[Phe(3-CF3)][Bip(4'-COOH)][Bip][Orn][NMeA][dL][Dab][Cha]V[Orn]C[Dab]-NH2; thioether N-14), for which the IC50 in test [1] stood at 0.11 µM; in test [2] it was 0.03 µM.

For the molecule `CC(=O)Nc1ccc(-c2ccc(C[C@@H]3NC(=O)[C@H](Cc4cccc(C)c4)NC(=O)[C@H](CC(=O)O)NC(=O)[C@H](Cc4ccc(C(=O)O)cc4)NC(=O)[C@H](CN4CCOCC4)NC(=O)CSC[C@@H](C(=O)N[C@@H](CCN)C(N)=O)NC(=O)[C@H](CCCN)NC(=O)[C@H](C(C)C)NC(=O)[C@H](Cc4cccc(F)c4)NC(=O)[C@H](CCN)NC(=O)[C@@H](CC(C)C)NC(=O)[C@H](C)N(C)C(=O)[C@H](CCC(N)=O)NC(=O)[C@H](Cc4ccc(-c5ccccc5)cc4)NC3=O)cc2)cc1` [Example 5049] ({CH2CO}-[Ala(morpholin-4-yl)][Phe(4-COOH)]D[Phe(3-Me)][Bip(4'-NHAc)][Bip]Q[NMeA][dL][Dab][Phe(3-F)]V[Orn]C[Dab]-NH2; thioether N-14), the IC50 in test [1] amounted to 0.007 µM; in test [2] it was 0.0083 µM.

`CC(=O)Nc1ccc(-c2ccc(C[C@@H]3NC(=O)[C@H](Cc4cccc(C(F)(F)F)c4)NC(=O)[C@H](CC(=O)O)NC(=O)[C@H](Cc4ccc(-c5ccc(C(=O)O)cc5)cc4)NC(=O)[C@H](Cc4ccc(OCC(=O)O)cc4)NC(=O)CSC[C@@H](C(=O)N[C@@H](CCN)C(N)=O)NC(=O)[C@H](CCC(=O)O)NC(=O)[C@H](C(C)C)NC(=O)[C@H](CC4CCCCC4)NC(=O)[C@H](CCN)NC(=O)[C@@H](CC(C)C)NC(=O)[C@H](C)N(C)C(=O)[C@H](CCCN)NC(=O)[C@H](Cc4ccc(-c5ccccc5)cc4)NC3=O)cc2)cc1` [Example 5084] ({CH2CO}-Y(Carboxymethyl)[Bip(4'-COOH)]D[Phe(3-CF3)][Bip(4'-NHAc)][Bip][Orn][NMeA][dL][Dab][Cha]VEC[Dab]-NH2; thioether N-14): the IC50 in test [1] stood at 0.0332 µM; in test [2], 0.0243 µM.
